# Reference: ChEMBL document CHEMBL5725763, “Factor XIa inhibitors” (2018)
# Molecular target: Coagulation factor XI (Homo sapiens, UniProt P03951)
# Assay: Factor XIa Assay: The effectiveness of a compound of the present invention as an inhibitor of Coagulation Factor XIa can be determined using a relevant purified serine protease, and an appropriate synthetic substrate. The rate of hydrolysis of the chromogenic or fluorogenic substrate by the relevant serine protease was measured both in the absence and presence of compounds of the present invention. Assays were conducted at room temperature or at 37° C. […] A decrease in the rate of fluorescence change in the presence of inhibitor is indicative of enzyme inhibition. Such methods are known to one skilled in the art. […] Times required to achieve equilibration between enzyme and inhibitor were determined in control experiments. Initial velocities of product formation in the absence (Vo) or presence of inhibitor (Vi) were measured. Assuming competitive inhibition, and that unity is negligible compared Km/[S], [I]/e, and [I]/e (where [S], [I], and e respectively represent the total concentrations, of substrate, inhibitor and enzyme), the equilibrium constant (Ki) for dissociation of the inhibitor from the enzyme can be obtained from the dependence of Vo/Vi on [I] shown in the following equation. V o /V i=1+[I]/K iThe activities shown by this assay indicate that the compounds of the invention may be therapeutically useful for treating or preventing various cardiovascular and/or cerebrovascular thromboembolic conditions in patients suffering from unstable angina, acute coronary syndrome, refractory angina, myocardial infarction, transient ischemic attacks, atrial fibrillation, stroke such as thrombotic stroke or embolic stroke, venous thrombosis, coronary and cerebral arterial thrombosis, cerebral and pulmonary embolism, atherosclerosis, deep vein thrombosis, disseminated intravascular coagulation, and reocclusion or restenosis of recanalized vessels.
# Coagulation factor XI, sequence (P03951 19-387 limits assumed): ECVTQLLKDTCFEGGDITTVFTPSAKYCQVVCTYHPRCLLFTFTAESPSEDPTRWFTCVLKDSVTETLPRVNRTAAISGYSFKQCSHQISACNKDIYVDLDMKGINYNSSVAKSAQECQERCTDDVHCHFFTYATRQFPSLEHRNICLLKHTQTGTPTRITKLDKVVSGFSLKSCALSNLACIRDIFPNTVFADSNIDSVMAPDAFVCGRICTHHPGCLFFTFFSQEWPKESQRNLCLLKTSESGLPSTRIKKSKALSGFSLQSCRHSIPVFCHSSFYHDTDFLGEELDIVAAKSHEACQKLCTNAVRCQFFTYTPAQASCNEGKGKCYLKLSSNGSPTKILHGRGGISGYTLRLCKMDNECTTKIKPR
# Coagulation factor XI, sequence (P03951 388-625 limits assumed): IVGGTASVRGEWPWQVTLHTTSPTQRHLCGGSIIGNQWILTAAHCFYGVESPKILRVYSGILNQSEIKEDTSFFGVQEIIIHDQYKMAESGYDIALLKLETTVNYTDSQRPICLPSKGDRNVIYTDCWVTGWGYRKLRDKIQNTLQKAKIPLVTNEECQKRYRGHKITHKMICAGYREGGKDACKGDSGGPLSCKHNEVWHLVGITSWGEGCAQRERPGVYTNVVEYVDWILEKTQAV
row,Compound,Ki [µM]
1,COC(=O)Nc1ccc2c(N[C@@H](Cc3ccccc3)C(=O)N3CCC[C@@]4(C3)OC(=O)Nc3ccc(Cl)cc34)noc2c1,0.523
2,Nc1ccc(-c2c[nH]c(C(Cc3ccccc3)C(=O)N3CCC[C@@]4(C3)OC(=O)Nc3ccc(Cl)c(F)c34)n2)cn1 (some centres undefined),0.353
3,COC(=O)Nc1ccc2c(N[C@@H](Cc3ccccc3)C(=O)N3CCC[C@@]4(C3)OC(=O)Nc3ccc(Cl)cc34)nn(C)c2c1,8.2
4,CC(=O)Nc1ccc(N[C@@H](Cc2ccccc2)C(=O)N2CCC[C@@]3(C2)OC(=O)Nc2ccc(Cl)cc23)cc1,10
